Data taken from patent US20130143965A1, “MICROBI[…] AND STABLE SOLUTIONS OF GAMMA-HYDRO[…] FOR THE TREATMENT OF NARCOLEPSY” (Jazz Pharmaceuticals, Inc., priority 1998, published 2013).
Entries after “also recorded” stand apart in the source; their conditions may differ. Like-named read-outs stand apart in the source and are kept apart here.

What was measured:
[1] = Pharmacokinetics of GHB after two consecutive 3 g oral doses in narcoleptic patients; format: in vivo, human; conditions: for Cmax: po, read-out: maximum GHB concentration (Cmax), mean ±SD
Description: The objective of this study was to assess the pharmacokinetics of GHB after oral administration of two consecutive single doses of GHB (3 g/dose; patients generally ingested the first dose of this medication prior to bedtime and the second dose from 2.5 to 4.0 h later) to narcoleptic patients who are maintained on a chronic regimen of GHB.
This pharmacokinetic study was conducted as an open-label, single-center investigation in 6 narcoleptic patients. The study design is summarized as follows:
Before oral administration of the first GHB dose, an indwelling catheter was placed in an arm vein and a baseline blood sample was collected. Each patient then ingested a 3 g dose of GHB before bedtime. Another 3 g GHB dose was administered 4 h after the first dose. Twenty-one sequential blood samples were collected over 12 h (starting at 10 min after the first dose and ending at 8 h after the second dose). Upon completion of the treatment phase, a follow-up physical examination which included the measurement of vital signs was performed on each patient within 48 h after the last blood sample. A detailed description of the trial methodology is presented in Section IV.
All patients were hospitalized from approximately four hours prior to first GHB dosing (around 6 p.m.) until the end of the treatment period (around 10 a.m. the next morning). Patients ate their dinner at the clinical research unit soon after arrival and fasted until breakfast next morning. At least three hours elapsed between the completion of dinner and the administration of the first GHB dose. An indwelling catheter was placed in an arm vein of each patient for blood sampling at approximately 30 min and 1 h before the first GHB dose and a baseline blood sample (5 mL) was collected.
The first GHB dose (3 g) was administered at around 10 p.m. Dosing of individual patients were staggered. The second GHB dose was administered at 4 h after the first GHB dose (i.e. immediately after the 4 h blood sample). The exact dosing times in each patient were recorded on appropriate CRF pages. Blood samples (5 mL each) were collected through the indwelling catheter into heparinized tubes at 0.2, 0.4, 0.6, 0.8, 1, 1.5, 2, 3, 4, 4.2, 4.4, 4.6, […], 5, 5.5, […], 7, 8, 10, and 12 h after the first GHB dose. Blood samples were processed according to the procedures described herein. Patients were monitored for adverse experiences throughout the study according to the specific procedures.
Dose Administration: The investigator or designee prepared the oral solution for dosing within 30 min prior to the first oral administration to individual patients. The contents of one twin-pouch was emptied into a dosing cup to which two ounces of water were added. After replacing the lid of the dosing cup, it was gently shaken to dissolve the GHB and excipient in water. The GHB solution was ingested in its entirety. Likewise, the second GHB dosing solution was prepared in the same manner and was ingesting in its entirety at 4 h after the first GHB dose.
Plasma samples were analyzed for GHB by the Department of Bioanalytical Chemistry (Covance (previously known as Hazelton Corning), Madison, Wis.) A gas chromatographic method with mass selective detection (GC-MSD) was used in the analysis.
Pharmacokinetic Analysis: Pharmacokinetic parameters were determined for individual sets of plasma GHB concentration vs. time data using the non-compartmental routine in WinNonlin Version 1.1. The peak GHB concentrations (Cmax) and the times of their respectively occurrences (tmax) were observed values. Terminal half-life (T1/2) was obtained by log-linear regression analysis of the terminal phase of concentration vs. time curves. The area under the curve (AUCinf) and the area under the first moment curve (AUMCinf) were calculated by the linear trapezoidal rule up to the last determined concentration and included extrapolated areas to time infinity. Apparent oral clearance (CL/F) was calculated as Dose/AUCinf. […]

[2] = Solubility of sodium oxybate (GHB) in aqueous solution versus pH; conditions: for State of 1000 mg/cc solution: pH unadjusted
[3] = alcohol dependent patients, cited from earlier work
[4] = Safety assessment in the pharmacokinetic study (adverse experiences, physical examination); format: in vivo, human
Description: Follow-up occurred within 48 h after the last blood sample had been collected. An abbreviated physical examination which included vital signs measurement was performed. Adverse experiences and concomitant medication use, if any, were assessed. Any ongoing adverse experiences and clinically important findings in a patient were followed to the investigator's and/or sponsor's satisfaction before the patient was discharged from the study.
An adverse experience are any undesirable event experienced by a patient or volunteer whether or not considered drug-related by the investigator. An undesirable event can be, but is not limited to, subjective symptoms experienced by a patient or, objective findings such as significant clinical laboratory abnormalities. Adverse experience is considered synonymous with the term “adverse event”.
The investigators report in detail all adverse experiences and symptoms that occurred during or following the course of trial drug administration for up to 2 days. Included in the description was the nature of the sign or symptom; the date of onset; date or resolution (duration); the severity; the relationship to trial treatment or other therapy; the action taken, if any; and the outcome.
Safety Analyses: Results of physical examinations, vital signs, clinical laboratory data were summarized in tabular form and presented by patient number. […]

Compound: O=C(O)CCCO [GHB, gamma-hydroxybutyrate]
- highest plasma GHB concentration observed in the study ([1]; Subject 101 after the second 3 g GHB dose): 125.0 µg/mL
- mean observed time to maximum concentration ([1]; after the first GHB dose): 40 ± 6 min
- mean observed time to maximum concentration ([1]; after the second GHB dose): 36 ± 7 min
- time by which plasma GHB concentrations were no longer detectable ([1]; after the second GHB dose (10 h after the first GHB dose)): ≤ 6 h
- Tmax ([1]; human, plasma, oral, 3 g, after dosing (discussion)): ~40 min
- concentration at 4 h ([1]; human, plasma, oral, 3 g, at h 4 after the first GHB dose, in three of six patients, read-out: residual GHB levels): ~15 µg/mL
- half-life ([1]; human, plasma, oral, narcoleptic patients, read-out: elimination half-life of GHB): < 60 min
- half-life ([1]; human, plasma, oral, terminal phase of the second GHB dose, read-out: mean GHB T1/2 (elimination half-life)): 53 ± 19 min
- Cmax ([1]; human, plasma, 3 g, first 3 g oral GHB dose, 6 narcoleptic patients): 62.8 ± 27.4 µg/mL
- Cmax ([1]; human, plasma, 3 g, second 3 g oral GHB dose (4 h after the first)): 91.2 ± 25.6 µg/mL
- AUC(0-inf) ([1]; human, plasma, two 3 g oral doses 4 h apart, read-out: mean AUCinf (converted)): 296 µg·h/mL
- CL/F ([1]; human, plasma, two 3 g oral doses 4 h apart, read-out: mean CL/F (apparent oral clearance)): 4.2 ± 1 mL/min/kg
- MRT inf ([1]; human, plasma, two 3 g oral doses 4 h apart, read-out: mean MRTinf (converted)): 249 min
- Vd/F ([1]; human, plasma, two 3 g oral doses 4 h apart, read-out: mean Vz/F): 0.307 ± 0.096 L/kg
- mean GHB T1/2 (elimination half-life) ([1]; terminal phase of the second GHB dose): ~35 min
- solubility ([2]; aqueous medium, 25 °C, thermodynamic from solid): ≤ 750 mg/mL
- solubility ([2]; aqueous medium, 100 °C, thermodynamic from solid): ≥ 1000 mg/mL
- apparent oral clearance ([3]; 25 mg/kg dose (Ferrara, 1992)): 8.1 ± 4.8 mL/min/kg
- apparent oral clearance ([3]; dose of 50 mg/kg (Ferrara, 1992)): 5.3 ± 2.2 mL/min/kg
- adverse experiences / tolerability ([4]; narcoleptic patients, two 3 g oral doses): No adverse experiences were reported; also recorded: well tolerated
- follow-up physical examination results ([4]; screen versus follow-up, per individual patient): did not identify any changes attributable to GHB

Compound: O=C(O)CCCO [Sodium Oxybate, sodium oxybate]
- solubility ([2]; 500 mg/cc with Malic Acid at pH 5.0): not soluble
- solubility ([2]; aqueous medium, 25 °C, pH 4, aqueous buffer, thermodynamic from solid): 450 mg/mL
- solubility ([2]; aqueous medium, 25 °C, pH 5, aqueous buffer, thermodynamic from solid): 500 mg/mL
- solubility ([2]; aqueous medium, 25 °C, pH 6, aqueous buffer, thermodynamic from solid): 600 mg/mL
- solubility ([2]; aqueous medium, 25 °C, pH 6.8, aqueous buffer, thermodynamic from solid): 750 mg/mL
- solubility ([2]; aqueous medium, 25 °C, pH 10.3, thermodynamic from solid): ≥ 750 mg/mL
- solubility ([2]; aqueous medium, 65 °C, thermodynamic from solid): 1000 mg/mL
- Maxium Solubility ([2]; pH 4 (HCl), 25°): 450 mg/cc
- Maxium Solubility ([2]; pH 5 (HCl), 25°): 500 mg/cc
- Maxium Solubility ([2]; pH 6 (HCl), 25°): 600 mg/cc
- Maxium Solubility ([2]; pH 6.8 (HCl), 25°): 750 mg/cc
- Maxium Solubility ([2]; pH 10.3, 25°): 750 mg/cc +
- Maxium Solubility ([2]; pH (unadjusted), 65° Soluble, 25° Gel): 1000 mg/cc
- State of 1000 mg/cc solution ([2]; 25°): Gel
- State of 1000 mg/cc solution ([2]; 65°): Soluble,
